This passage reports IC50 results from patent US20230086702A1, “SUBSTITUTED 2-AMINO-PYRAZOLYL-[1,2,4]TRIAZOLO[1,5A]PYRIDINE DERIVATIVES AND USE THEREOF” (The Johns Hopkins University, priority 2019, published 2023).

By IC50 is commonly meant the concentration that gives 50% inhibition. Read a high IC50 as lower potency.

For one test, the target named is T1, DLK (Homo sapiens, UniProt Q12852).
T1 construct: 10 nM DLK, catalytic domain, Carna Biosiences; purchased Carna Biosciences ('Carna Biosiences' [sic])
T1 sequence (Q12852 125-366 limits assumed): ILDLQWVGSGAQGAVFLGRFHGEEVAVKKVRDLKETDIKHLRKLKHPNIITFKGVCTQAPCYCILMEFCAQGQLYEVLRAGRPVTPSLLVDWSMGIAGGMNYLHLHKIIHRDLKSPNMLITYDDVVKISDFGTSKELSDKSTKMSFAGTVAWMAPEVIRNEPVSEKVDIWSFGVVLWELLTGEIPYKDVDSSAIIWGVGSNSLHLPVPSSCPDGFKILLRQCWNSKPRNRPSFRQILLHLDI
Nature of the test: DLK biochemical assay (TR-FRET, MKK7 phosphorylation). The method in brief: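 DLK catalytic domain (10 nM) phosphorylates His-MKK7 (15 nM) at 60 μM ATP for 90 min at RT in pH 7.5 Hepes buffer (final concentrations). Phospho-T275/S277 is detected by TR-FRET (Eu anti-phospho donor, XL665 anti-His acceptor) after 16 h at 37° C (1536 format) or 4° C (384 format).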
On the technique in general: Time-resolved FRET reads energy transfer from a long-lived donor to a nearby acceptor.

For another test, the target named is T2, LZK (Homo sapiens, UniProt O43283).
T2 construct: 10 nM LZK, catalytic domain, Carna Biosiences in assay buffer; purchased Carna Biosciences ('Carna Biosiences' [sic])
T2 sequence (O43283 168-409 limits assumed): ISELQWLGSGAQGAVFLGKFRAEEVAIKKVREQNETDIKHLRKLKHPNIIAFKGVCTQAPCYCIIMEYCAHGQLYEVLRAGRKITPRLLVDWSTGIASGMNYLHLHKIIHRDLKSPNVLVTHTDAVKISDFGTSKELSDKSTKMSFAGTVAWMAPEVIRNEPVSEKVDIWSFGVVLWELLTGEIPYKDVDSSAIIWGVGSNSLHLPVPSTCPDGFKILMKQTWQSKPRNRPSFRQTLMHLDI
In words: LZK biochemical assay (TR-FRET, MKK7 phosphorylation). The gist of the method:
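LZK catalytic domain (10 nM) phosphorylates His-MKK7 (15 nM) with 15 µM ATP, all final, for 90 min at RT in HEPES buffer pH 7.5 with MgCl2. Phospho-T275/S277 detected by TR-FRET (Eu anti-phospho donor, XL665 anti-His acceptor) after 16 h at 32 °C in EDTA stop buffer. Inhibition lowers the 665/Eu ratio.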

Turning to `CC(C)C(c1ccc(C(F)F)nc1)n1cc(-c2cc(-c3ccc(C(F)(F)F)nc3)n3nc(N)nc3c2)cn1` (single isomer, unassigned) [II-65, 7-(1-{1-[6-(Difluoromethyl)pyridin-3-yl]-2-methylpropyl}-1H-pyrazol-4-yl)-5-[6-(trifluoromethyl)pyridin-3-yl][1,2,4]triazolo[1,5-a]pyridin-2-amine], the IC50 against DLK was 440 nM; against LZK, 210 nM.
In the same order, the values of `CC(C)C(c1ccc(C(F)F)nc1)n1cc(-c2cc(-c3ccc(C(F)(F)F)nc3)n3nc(N)nc3c2)cn1` (single isomer, unassigned) [II-66, 7-(1-{1-[6-(Difluoromethyl)pyridin-3-yl]-2-methylpropyl}-1H-pyrazol-4-yl)-5-[6-(trifluoromethyl)pyridin-3-yl][1,2,4]triazolo[1,5-a]pyridin-2-amine] are 45 nM and 43 nM.
In the same order, the values of `CCC(c1ccc(C(F)F)nc1)n1cc(-c2cc(-c3ccc(C4CC4)nc3)n3nc(N)nc3c2)cn1` (single isomer, unassigned) [II-68, 5-(6-Cyclopropylpyridin-3-yl)-7-(1-{1-[6-(difluoromethyl)pyridin-3-yl]propyl}-1H-pyrazol-4-yl)[1,2,4]triazolo[1,5-a]pyridin-2-amine] are 36 nM and 86 nM.
In the same order, the values of `CCC(c1ccc(C(F)F)nc1)n1cc(-c2cc(-c3ccc(C4CC4)nc3)n3nc(N)nc3c2)cn1` (single isomer, unassigned) [II-69, 5-(6-Cyclopropylpyridin-3-yl)-7-(1-{1-[6-(difluoromethyl)pyridin-3-yl]propyl}-1H-pyrazol-4-yl)[1,2,4]triazolo[1,5-a]pyridin-2-amine] are 4.8 nM and 9.4 nM.
As for `CC(C)C(c1ccc(C(F)(F)F)nc1)n1cc(-c2cc(-c3ccc(C(F)F)nc3)n3nc(N)nc3c2)cn1` (single isomer, unassigned) [II-71, 5-[6-(Difluoromethyl)pyridin-3-yl]-7-(1-{2-methyl-1-[6-(trifluoromethyl)pyridin-3-yl]propyl}-1H-pyrazol-4-yl)[1,2,4]triazolo[1,5-a]pyridin-2-amine], the IC50 was 160 nM at DLK and 74 nM against LZK.
In the same order, the values of `CC(C)C(c1ccc(C(F)(F)F)nc1)n1cc(-c2cc(-c3ccc(C(F)F)nc3)n3nc(N)nc3c2)cn1` (single isomer, unassigned) [II-72, 5-[6-(Difluoromethyl)pyridin-3-yl]-7-(1-{2-methyl-1-[6-(trifluoromethyl)pyridin-3-yl]propyl}-1H-pyrazol-4-yl)[1,2,4]triazolo[1,5-a]pyridin-2-amine] are 16 nM and 17 nM.
In the same order, the values of `CC(C)C(c1ccc(C(F)(F)F)nc1)n1cc(-c2cc(-c3ccc(C4CC(F)(F)C4)nc3)n3nc(N)nc3c2)cn1` (single isomer, unassigned) [II-74, 5-[6-(3,3-Difluorocyclobutyl)pyridin-3-yl]-7-(1-{2-methyl-1-[6-(trifluoromethyl)pyridin-3-yl]propyl}-1H-pyrazol-4-yl)[1,2,4]triazolo[1,5-a]pyridin-2-amine] are 510 nM and 170 nM.
`CC(C)C(c1ccc(C(F)(F)F)nc1)n1cc(-c2cc(-c3ccc(C4CC(F)(F)C4)nc3)n3nc(N)nc3c2)cn1` (single isomer, unassigned) [II-75, 5-[6-(3,3-Difluorocyclobutyl)pyridin-3-yl]-7-(1-{2-methyl-1-[6-(trifluoromethyl)pyridin-3-yl]propyl}-1H-pyrazol-4-yl)[1,2,4]triazolo[1,5-a]pyridin-2-amine]: the IC50 is 27 nM at DLK and 15 nM on LZK.
Consider `Nc1nc2cc(-c3cnn(C(c4ccc(C(F)F)nc4)C4CCOCC4)c3)cc(-c3ccc(C(F)(F)F)nc3)n2n1` (single isomer, unassigned) [II-77, 7-(1-{[6-(Difluoromethyl)pyridin-3-yl](tetrahydro-2H-pyran-4-yl)methyl}-1H-pyrazol-4-yl)-5-[6-(trifluoromethyl)pyridin-3-yl][1,2,4]triazolo[1,5-a]pyridin-2-amine], for which the IC50 turned out to be 160 nM at DLK and 61 nM at LZK.
On the same counts, the results for `Nc1nc2cc(-c3cnn(C(c4ccc(C(F)F)nc4)C4CCOCC4)c3)cc(-c3ccc(C(F)(F)F)nc3)n2n1` (single isomer, unassigned) [II-78, 7-(1-{[6-(Difluoromethyl)pyridin-3-yl](tetrahydro-2H-pyran-4-yl)methyl}-1H-pyrazol-4-yl)-5-[6-(trifluoromethyl)pyridin-3-yl][1,2,4]triazolo[1,5-a]pyridin-2-amine] are 5.2 nM and 5.3 nM.
For the compound `CC(C)C(c1ccc(C(F)(F)F)nc1)n1cc(-c2cc(-c3ccc(C4(O)CCC4)nc3)n3nc(N)nc3c2)cn1` (single isomer, unassigned) [II-81, 1-{5-[2-Amino-7-(1-{2-methyl-1-[6-(trifluoromethyl)pyridin-3-yl]propyl}-1H-pyrazol-4-yl)[1,2,4]triazolo[1,5-a]pyridin-5-yl]pyridin-2-yl}cyclobutan-1-ol], the concentration for half-maximal inhibition (IC50) came to 4 nM against DLK and 2.4 nM against LZK.
On to `CC(C)C(c1ccc(C(F)(F)F)nc1)n1cc(-c2cc(-c3ccc(C4(O)CCC4)nc3)n3nc(N)nc3c2)cn1` (single isomer, unassigned) [II-82, 1-{5-[2-Amino-7-(1-{2-methyl-1-[6-(trifluoromethyl)pyridin-3-yl]propyl}-1H-pyrazol-4-yl)[1,2,4]triazolo[1,5-a]pyridin-5-yl]pyridin-2-yl}cyclobutan-1-ol], for which the IC50 against DLK and against LZK was 42 nM throughout.
As for `CC[C@@H](c1ccccc1)n1cc(-c2cc(-c3cnn(C(C)C(F)(F)F)c3)c3nc(N)nn3c2)cn1` (single isomer, unassigned) [II-95], the IC50 was 5.6 nM against DLK and 40 nM at LZK.
On the same counts, the results for `CC[C@@H](c1ccccc1)n1cc(-c2cc(-c3cnn(C(C)C(F)(F)F)c3)c3nc(N)nn3c2)cn1` (single isomer, unassigned) [II-96] are 17 nM and 60 nM.
In the same order, the values of `CCC(c1ccc(C(F)(F)F)cc1)n1cc(-c2cc(-c3cnn(C)c3)c3nc(N)nn3c2)cn1` (single isomer, unassigned) [II-100, 8-(1-Methyl-1H-pyrazol-4-yl)-6-(1-{1-[4-(trifluoromethyl)phenyl]propyl}-1H-pyrazol-4-yl)[1,2,4]triazolo[1,5-a]pyridin-2-amine] are 58 nM and 500 nM.
In the same order, the values of `CCC(c1ccc(C(F)(F)F)cc1)n1cc(-c2cc(-c3cnn(C)c3)c3nc(N)nn3c2)cn1` (single isomer, unassigned) [II-101, 8-(1-Methyl-1H-pyrazol-4-yl)-6-(1-{1-[4-(trifluoromethyl)phenyl]propyl}-1H-pyrazol-4-yl)[1,2,4]triazolo[1,5-a]pyridin-2-amine] are 6.8 nM and 110 nM.
Regarding `CCC(c1ccc(N2CCOCC2)cc1)n1cc(-c2cc(-c3cnn(CC(F)(F)F)c3)c3nc(N)nn3c2)cn1` (single isomer, unassigned) [II-103, 6-(1-{1-[4-(Morpholin-4-yl)phenyl]propyl}-1H-pyrazol-4-yl)-8-[1-(2,2,2-trifluoroethyl)-1H-pyrazol-4-yl][1,2,4]triazolo[1,5-a]pyridin-2-amine], the IC50 was determined as 64 nM against DLK and 160 nM against LZK.
On the same counts, the results for `CCC(c1ccc(N2CCOCC2)cc1)n1cc(-c2cc(-c3cnn(CC(F)(F)F)c3)c3nc(N)nn3c2)cn1` (single isomer, unassigned) [II-104, 6-(1-{1-[4-(Morpholin-4-yl)phenyl]propyl}-1H-pyrazol-4-yl)-8-[1-(2,2,2-trifluoroethyl)-1H-pyrazol-4-yl][1,2,4]triazolo[1,5-a]pyridin-2-amine] are 6 nM and 51 nM.
On the same counts, the results for `CCC(c1ccc(C(F)F)nc1)n1cc(-c2cc(-c3cnn(CC(F)(F)F)c3)c3nc(N)nn3c2)cn1` (single isomer, unassigned) [II-106, 6-(1-{1-[6-(Difluoromethyl)pyridin-3-yl]propyl}-1H-pyrazol-4-yl)-8-[1-(2,2,2-trifluoroethyl)-1H-pyrazol-4-yl][1,2,4]triazolo[1,5-a]pyridin-2-amine] are 40 nM and 47 nM.
In the same order, the values of `CCC(c1ccc(C(F)F)nc1)n1cc(-c2cc(-c3cnn(CC(F)(F)F)c3)c3nc(N)nn3c2)cn1` (single isomer, unassigned) [II-107, 6-(1-{1-[6-(Difluoromethyl)pyridin-3-yl]propyl}-1H-pyrazol-4-yl)-8-[1-(2,2,2-trifluoroethyl)-1H-pyrazol-4-yl][1,2,4]triazolo[1,5-a]pyridin-2-amine] are 4 nM and 10 nM.
